Measurements reported in patent US6949553B2, “Aliphatic compounds, their synthesis method, and utilization of the same” (Maruha Corporation, priority 2001, dated 2005).

How the values were obtained:
platelets [1] = test: Collagen-induced in vitro platelet aggregation (rabbit PRP, transmittance); format: cell-based; conditions: Oryctolagus cuniculus; collagen 0.2 μg/ml, rabbit platelet rich plasma; read-out: 50% Inhibition Point for Platelet Aggregation, IC50
Protocol: Collagen-induced in vitro Platelet Aggregation
It was studied whether the compounds of the present invention would inhibit platelet aggregation induced by collagen.
These compounds were each diluted with physiological saline to end concentrations of 1×10^−7M, 3×10^−7M, 1×10^−6M, 3×10^−6M, 1×10^−5M, 3×10^−5M and 1×10^−4M.
Indomethacin was used as a positive control. Indomethacin was dissolved in methanol, and then diluted with physiological saline to end concentrations of 1×10^−6M, 3×10^−6M and 1×10^−5M.
Physiological saline was used as a negative control.
The tube was centrifuged at 900 rpm for 10 minutes at room temperature to separate the supernatant (PRP, platelet rich plasma fraction). The residue was further centrifuged for 15 minutes at 2,500 rpm to obtain the supernatant (PPP, platelet poor plasma fraction).
PPP (platelet poor plasma fraction) was placed in a cuvette, and the cuvette was mounted in a 37° C. incubator for PPP of an aggregometer (Hematracer 240 12ch, manufactured by MCM). Then, 200 μl of PRP (platelet rich plasma fraction) was added into a cuvette, and the cuvette was mounted in a reactor for PRP. With stirring by a magnetic stirrer, the transmittance of PPP was corrected to T650 nm=100%, and the transmittance of PRP was corrected to T650 nm=0%, by automatic adjustment for 30 seconds.
The study substance (20 μl) at a predetermined concentration was added into the cuvette and, 30 seconds later, 20 μl (end concentration 0.2 μg/ml) of collagen (produced by MCM) was added. Subsequent changes in the transmittance were recorded for 5 minutes. When the platelets are aggregated, the transmittance increases. When aggregation peaked, the transmittance T at maximum aggregation was compared with the transmittance T0 of the negative control, and the aggregation inhibition rate was expressed as percentage using the following equation: Aggregation inhibition rate=(1−T/T0)×100
From an aggregation inhibition curve obtained, a regression equation was derived by approximation of the linear type.

[2] = tested on: neutrophils and vascular endothelial cells; test: Pseudo-blood vessel in vitro inflammation model (TNFα, neutrophil migration through endothelial cell layer); format: cell-based, bovine; conditions: 30, 3 or 0.3 μM, TNFα 50 ng/ml
Protocol: A layer of bovine endothelial cells was adhered to the bottom surface of the membrane, and cultured for 80 minutes at 37° C. in 5% CO2. Then, a suspension of fluorescence-labeled neutrophils was added to the upper chamber of the transwell. Simultaneously, TNFα was suspended in the cell suspension in the upper chamber to an end concentration of 50, 25 or 17 ng/ml.
That is, in the above model, the phenomena that neutrophils pass from the upper chamber through the vascular endothelial cell layer into the lower chamber, and neutrophils adhere to the endothelial cell layer mimic a state where in response to TNFα within the blood vessel, neutrophils migrate from within the blood vessel to the site of inflammation.
In the same manner as described above, the number of neutrophils passing from the upper chamber through the vascular endothelial cell layer into the lower chamber, and the number of neutrophils adhering to the endothelial cell layer were measured. Based on these numbers, the neutrophil migration rate (%) was calculated. The neutrophil migration rate was expressed as the relative value (%) of the number of the migrating neutrophils in the drug treatment group with respect to the number of the migrating neutrophils in the negative control group (physiological saline).

platelets [3] = test: Ex vivo platelet aggregation after intravenous administration; format: in vivo, rat; conditions: 0.1 mg/kg intravenous, blood 1 hour after administration, collagen 1 to 6 μg/ml
Protocol: The blood was withdrawn at three points in time, 10 minutes, 30 minutes and 1 hour after administration. Platelets were prepared from the blood samples taken, and they were used to study the aggregation rates when platelet aggregation was induced by 0.3 to 6 μg/ml of collagen. In a control group, the aggregation rates after administration of a solvent (physiological saline) were measured.
It was studied whether the compound of the present invention would suppress ex vivo platelet aggregation dose-dependently.
The blood was withdrawn 60 minutes after administration, and platelets were prepared from the blood. Platelet aggregation was induced by 4 to 7 μg/ml of collagen using the platelets.
The blood was withdrawn 1 hour after intravenous administration, and platelets were prepared from the blood. Platelet aggregation was induced by 1 to 6 μg/ml of collagen using the platelets.

platelets [4] = test: In vitro platelet aggregation by various inducers, guinea pig platelets; format: cell-based; conditions: Cavia porcellus, inducer collagen (0.1 to 1 μg/ml), guinea pig platelets, read-out: 50% inhibition point, IC50, for in vitro platelet aggregation
Text: (§1) Next, the suppression of platelet aggregation by the compounds of the present invention was studied in the same manner as described above with the use of not only collagen, but also arachidonic acid, ADP, thrombin, serotonin, epinephrine and U46619 (pseudo-thromboxane A2 substance) as inducers.
(§2) As platelets, platelets prepared from rats and guinea pigs as well as rabbits were also used.
(§3) Collagen and ADP were purchased from MCM, and used in accordance with the method of preparation described in the manuals attached to the purchased products. Serotonin, epinephrine and thrombin were purchased from Sigma, and used as solutions in physiological saline for injection (Otsuka Pharmaceutical Factory). Arachidonic acid was purchased from Cayman, and dispersed in physiological saline for injection (Otsuka Pharmaceutical Factory) with the use of an immersion type ultrasonic oscillator (US150, NIPPON SEIKI, tip end diameter ca. 3.5 mm). U46619 (pseudo-thromboxane substance) was purchased from FUNAKOSHI, and dissolved in physiological saline for injection (Otsuka Pharmaceutical Factory) when used.
(§4) Collagen (0.1 to 1 μg/ml), arachidonic acid (1 mM), ADP (1 μM), thrombin (1 U/ml), serotonin (100 μM), epinephrine (100 to 200 μM), and U46619 (3 μM) were used.
(§5) Indomethacin was used as a positive control for measuring the suppression of platelet aggregation induced by collagen.

platelets [5] = test: In vitro platelet aggregation by various inducers, rat platelets; format: cell-based; conditions: inducer collagen (0.1 to 1 μg/ml), rat platelets, read-out: 50% inhibition point, IC50, for in vitro platelet aggregation
Text: as §1, §2, §3, §4, §5

platelets [6] = test: In vitro platelet aggregation by various inducers, rabbit platelets; format: cell-based; conditions: Oryctolagus cuniculus, Platelet; inducer collagen (0.1 to 1 μg/ml), rabbit platelets; read-out: 50% inhibition point, IC50, for in vitro platelet aggregation
Text: as §1, §2, §3, §4, §5

Row | Structure (SMILES) | IC50 (platelets [1]) [µM] | also measured
1 | CC/C=C\C/C=C\C/C=C\C/C=C\C/C=C\C/C=C\CCC(=O)NN1CCN(C)CC1 [Compound 1, (4Z,7Z,10Z,13Z,16Z,19Z)-N-(4-methylpiperazin-1-yl)docosahexaenoamide] | 7.9 | neutrophil passage through vascular endothelial cell layer (in words) [2]: suppressed neutrophil passage dose-dependently
2 | CCCCCCCC(=O)NCCC1CCCN1C (stereo not drawn) [Compound 3, N-[2-(1-methylpyrrolidin-2-yl)ethyl]caprylamide] | 8.1 | –
3 | CCCCCCCCCCCCCC(=O)NCCC1CCCN1C (stereo not drawn) [Compound 4, N-[2-(1-methylpyrrolidin-2-yl)ethyl]myristamide] | 42 | –
4 | CCCCCCCC/C=C\CCCCCCCC(=O)NCCC1CCCN1C (stereo not drawn) [Compound 5, 9Z-N-[2-(1-methylpyrrolidin-2-yl)ethyl]oleamide] | 5.6 | ex vivo platelet aggregation (in words) (platelets [3]): suppress platelet aggregation
5 | CCCCC/C=C\C/C=C\CCCCCCCC(=O)NCCC1CCCN1C (stereo not drawn) [Compound 6, (9Z,12Z)-N-[2-(1-methylpyrrolidin-2-yl)ethyl]linoleamide] | 2.1 | –
6 | CC/C=C\C/C=C\C/C=C\CCCCCCCC(=O)NCCC1CCCN1C (stereo not drawn) [Compound 7, (9Z,12Z,15Z)-N-[2-(1-methylpyrrolidin-2-yl)ethyl]linolenamide] | 3.7 | –
7 | CC/C=C\C/C=C\C/C=C\C/C=C\C/C=C\CCCC(=O)NCCC1CCCN1C (stereo not drawn) [Compound 8, (5Z,8Z,11Z,14Z,17Z)-N-[2-(1-methylpyrrolidin-2-yl)ethyl]eicosapentaenoamide] | 3.7 | –
8 | CC/C=C\C/C=C\C/C=C\C/C=C\C/C=C\C/C=C\CCC(=O)NCC1CCCN1C (stereo not drawn) [Compound 9, (4Z,7Z,10Z,13Z,16Z,19Z)-N-[(1-methylpyrrolidin-2-yl)methyl]docosahexaenoamide] | 1.5 | –
9 | CC/C=C\C/C=C\C/C=C\C/C=C\C/C=C\C/C=C\CCC(=O)NCCCC1CCCN1C (stereo not drawn) [Compound 11, (4Z,7Z,10Z,13Z,16Z,19Z)-N-[3-(1-methylpyrrolidin-2-yl)propyl]docosahexaenoamide] | 4.2 | –
10 | COc1ccc2c(c1)c(CC(=O)O)c(C)n2C(=O)c1ccc(Cl)cc1 [Indomethacin, reference compound] | 5 | IC50 (platelets [4]): 29 µM; IC50 (platelets [5]): 18 µM; IC50 (platelets [6]): 4 µM
